Results published in the supplement of paper PMC11451515.

System: P12-Ichikawa
Test: cell viability relative to DMSO control; higher = less cytotoxic
Settings: 48 h
Procedure, shortened: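 Viability, reported as a per-plate percentage of DMSO wells with cell-free wells as background, came from CellTiter-Glo One luminescence. Reading took place after 48 h at 37°C. Before that, NOMO1 or SEM (500 cells/well) or P12-Ichikawa (1000 cells/well) leukemia cells, adapted for at least four passages in each medium, were seeded in 1536-well plates (5 μl) and pin-dosed with library compounds in DMSO, 47 μM to 0.79 nM over 11 threefold points.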

[1] = HPLM + 10% dialyzed FBS, 0.000781 µM
[2] = HPLM + 10% dialyzed FBS, 0.00234 µM
[3] = HPLM + 10% dialyzed FBS, 0.00702 µM
[4] = HPLM + 10% dialyzed FBS, 0.0211 µM
[5] = HPLM + 10% dialyzed FBS, 0.0632 µM
[6] = HPLM + 10% dialyzed FBS, 0.19 µM
[7] = HPLM + 10% dialyzed FBS, 0.569 µM
[8] = HPLM + 10% dialyzed FBS, 1.71 µM
[9] = HPLM + 10% dialyzed FBS, 5.12 µM
[10] = HPLM + 10% dialyzed FBS, 15.4 µM
[11] = HPLM + 10% dialyzed FBS, 46.1 µM
[12] = RPMI 5 mM glucose + 10% FBS, 0.000781 µM
[13] = RPMI 5 mM glucose + 10% FBS, 0.00234 µM
[14] = RPMI 5 mM glucose + 10% FBS, 0.00702 µM
[15] = RPMI 5 mM glucose + 10% FBS, 0.0211 µM
[16] = RPMI 5 mM glucose + 10% FBS, 0.0632 µM
[17] = RPMI 5 mM glucose + 10% FBS, 0.19 µM
[18] = RPMI 5 mM glucose + 10% FBS, 0.569 µM
[19] = RPMI 5 mM glucose + 10% FBS, 1.71 µM
[20] = RPMI 5 mM glucose + 10% FBS, 5.12 µM
[21] = RPMI 5 mM glucose + 10% FBS, 15.4 µM
[22] = RPMI 5 mM glucose + 10% FBS, 46.1 µM
[23] = RPMI 5 mM glucose + 10% dialyzed FBS, 0.000781 µM
[24] = RPMI 5 mM glucose + 10% dialyzed FBS, 0.00234 µM
[25] = RPMI 5 mM glucose + 10% dialyzed FBS, 0.00702 µM
[26] = RPMI 5 mM glucose + 10% dialyzed FBS, 0.0211 µM
[27] = RPMI 5 mM glucose + 10% dialyzed FBS, 0.0632 µM
[28] = RPMI 5 mM glucose + 10% dialyzed FBS, 0.19 µM
[29] = RPMI 5 mM glucose + 10% dialyzed FBS, 0.569 µM
[30] = RPMI 5 mM glucose + 10% dialyzed FBS, 1.71 µM
[31] = RPMI 5 mM glucose + 10% dialyzed FBS, 5.12 µM
[32] = RPMI 5 mM glucose + 10% dialyzed FBS, 15.4 µM
[33] = RPMI 5 mM glucose + 10% dialyzed FBS, 46.1 µM

Question: With CC(C)[C@H](C(=O)Nc1ccc(C(=O)NO)cc1)c1ccccc1 as the compound, how does the cell viability [1] read?
Answer: 117%

Question: And the cell viability [2]?
Answer: 120%

Question: And the cell viability [3]?
Answer: 121%

Question: And the cell viability [4]?
Answer: 129%

Question: What about the cell viability [5] of the same compound?
Answer: 125%

Question: What about the cell viability [6] of the same compound?
Answer: 125%

Question: And the cell viability [7]?
Answer: 118%

Question: And the cell viability [8]?
Answer: 87.9%

Question: What about the cell viability [9] of the same compound?
Answer: 7.68%

Question: And the cell viability [10]?
Answer: 5.55%

Question: What about the cell viability [11] of the same compound?
Answer: 6.05%

Question: For Nc1cc(N2CCCCC2)nc(N)[n+]1[O-], which cell viability [1] is on record?
Answer: 114%

Question: And the cell viability [2]?
Answer: 125%

Question: And the cell viability [3]?
Answer: 122%

Question: And the cell viability [4]?
Answer: 118%

Question: What about the cell viability [5] of the same compound?
Answer: 120%

Question: What about the cell viability [6] of the same compound?
Answer: 127%

Question: And the cell viability [7]?
Answer: 131%

Question: What about the cell viability [8] of the same compound?
Answer: 125%

Question: What about the cell viability [9] of the same compound?
Answer: 122%

Question: And the cell viability [10]?
Answer: 119%

Question: What about the cell viability [11] of the same compound?
Answer: 122%

Question: And the cell viability [12]?
Answer: 125%

Question: What about the cell viability [13] of the same compound?
Answer: 128%

Question: And the cell viability [14]?
Answer: 121%

Question: What about the cell viability [15] of the same compound?
Answer: 134%

Question: And the cell viability [16]?
Answer: 127%

Question: What about the cell viability [17] of the same compound?
Answer: 123%

Question: And the cell viability [18]?
Answer: 131%

Question: And the cell viability [19]?
Answer: 127%

Question: What about the cell viability [20] of the same compound?
Answer: 131%

Question: What about the cell viability [21] of the same compound?
Answer: 134%

Question: What about the cell viability [22] of the same compound?
Answer: 127%

Question: What about the cell viability [23] of the same compound?
Answer: 113%

Question: What about the cell viability [24] of the same compound?
Answer: 124%

Question: What about the cell viability [25] of the same compound?
Answer: 111%

Question: What about the cell viability [26] of the same compound?
Answer: 125%

Question: What about the cell viability [27] of the same compound?
Answer: 121%

Question: What about the cell viability [28] of the same compound?
Answer: 114%

Question: What about the cell viability [29] of the same compound?
Answer: 125%

Question: What about the cell viability [30] of the same compound?
Answer: 129%

Question: And the cell viability [31]?
Answer: 121%

Question: And the cell viability [32]?
Answer: 113%

Question: What about the cell viability [33] of the same compound?
Answer: 117%

Question: For CC(=O)OCC(=O)[C@@]1(O)CC[C@H]2[C@@H]3CCC/4=C/C(=O)/C=C\[C@]4(C)[C@H]3[C@@H](O)C[C@]12C, which cell viability [1] is on record?
Answer: 120%

Question: And the cell viability [2]?
Answer: 128%

Question: What about the cell viability [3] of the same compound?
Answer: 123%

Question: What about the cell viability [4] of the same compound?
Answer: 126%

Question: What about the cell viability [5] of the same compound?
Answer: 102%

Question: What about the cell viability [6] of the same compound?
Answer: 85.3%

Question: And the cell viability [7]?
Answer: 95.7%

Question: And the cell viability [8]?
Answer: 72.1%

Question: And the cell viability [9]?
Answer: 66.4%

Question: And the cell viability [10]?
Answer: 118%

Question: What about the cell viability [11] of the same compound?
Answer: 109%

Question: What about the cell viability [23] of the same compound?
Answer: 117%

Question: And the cell viability [24]?
Answer: 118%

Question: What about the cell viability [25] of the same compound?
Answer: 121%

Question: What about the cell viability [26] of the same compound?
Answer: 130%

Question: And the cell viability [27]?
Answer: 92.5%

Question: And the cell viability [28]?
Answer: 77.4%

Question: What about the cell viability [29] of the same compound?
Answer: 100%

Question: And the cell viability [30]?
Answer: 50.8%

Question: What about the cell viability [31] of the same compound?
Answer: 43.8%

Question: What about the cell viability [32] of the same compound?
Answer: 109%

Question: What about the cell viability [33] of the same compound?
Answer: 102%

Question: For CC(C)(C)[C@]1(O)C[C@@H]2OC(=O)C[C@@]23C(=O)O[C@@H]2OC(=O)[C@H](O)C213 (some centres undefined), which cell viability [1] is on record?
Answer: 121%

Question: What about the cell viability [2] of the same compound?
Answer: 127%

Question: What about the cell viability [3] of the same compound?
Answer: 121%

Question: And the cell viability [4]?
Answer: 126%

Question: And the cell viability [5]?
Answer: 118%

Question: And the cell viability [6]?
Answer: 112%

Question: What about the cell viability [7] of the same compound?
Answer: 118%

Question: What about the cell viability [8] of the same compound?
Answer: 108%

Question: And the cell viability [9]?
Answer: 109%

Question: And the cell viability [10]?
Answer: 114%

Question: And the cell viability [11]?
Answer: 106%

Question: What about the cell viability [12] of the same compound?
Answer: 128%

Question: And the cell viability [13]?
Answer: 121%

Question: What about the cell viability [14] of the same compound?
Answer: 113%

Question: And the cell viability [15]?
Answer: 136%

Question: And the cell viability [16]?
Answer: 118%

Question: What about the cell viability [17] of the same compound?
Answer: 122%

Question: What about the cell viability [18] of the same compound?
Answer: 118%

Question: And the cell viability [19]?
Answer: 105%

Question: And the cell viability [20]?
Answer: 116%

Question: What about the cell viability [21] of the same compound?
Answer: 108%

Question: What about the cell viability [22] of the same compound?
Answer: 113%

Question: What about the cell viability [23] of the same compound?
Answer: 120%

Question: And the cell viability [24]?
Answer: 129%

Question: What about the cell viability [25] of the same compound?
Answer: 124%

Question: And the cell viability [26]?
Answer: 130%

Question: What about the cell viability [27] of the same compound?
Answer: 119%

Question: What about the cell viability [28] of the same compound?
Answer: 116%

Question: What about the cell viability [29] of the same compound?
Answer: 119%

Question: What about the cell viability [30] of the same compound?
Answer: 105%

Question: And the cell viability [31]?
Answer: 118%

Question: And the cell viability [32]?
Answer: 116%

Question: What about the cell viability [33] of the same compound?
Answer: 112%
